Data reported in US20150299233A1, “COMPOSITIONS AND METHODS COMPRISING RHENIUM FOR THE TREATMENT OF CANCERS” (Massachusetts Institute of Technology, priority 2014, published 2015).

Tests used:
[1] = tested on: NTERA-2; test: MTT cytotoxicity assay, NTERA-2 cells; assay type: cell-based, human; conditions: Table 1; 72 h exposure; ± standard deviation; read-out: IC50 NTERA-2 testis carcinoma
[2] = tested on: HT-29 (colorectal adenocarcinoma); test: MTT cytotoxicity assay, HT-29 cells; assay type: cell-based, human; conditions: for IC50: Table 2, cisplatin-resistant cell line, 72 h exposure; for IC50 lower in HT-29 cells than IC50 of cisplatin: ratio to cisplatin
Description: Cytotoxicity MTT Assay. […] Cells (2×10^3 cells/well) were seeded in a 96-well plate. […] The final concentration of DMSO in each well was 0.5%, and this amount was also present in the untreated control. After 72 h, the medium was removed, 200 μL of a 0.4 mg/mL solution of MTT in DMEM, RPMI, or McCoy's 5A was added, and the plate was incubated for an additional 1-2 h. The DMEM/MTT, RPMI/MTT, or McCoy's 5A/MTT mixture was aspirated, and 200 μL of DMSO was added to dissolve the resulting purple formazan crystals. The absorbance of the solution wells was read at 550 nm. Absorbance values were normalized to DMSO-containing control wells and plotted as the concentration of test compound versus % cell viability. IC50 values were interpolated from the resulting dose-dependent curves. The reported IC50 values are the average from at least three independent experiments, each of which consisted of six replicates per concentration level.

[3] = tested on: confluent A549 cells; test: MTT cytotoxicity assay, confluent A549 cells; assay type: cell-based, human; conditions: for IC50: Table 2, confluent cells, 72 h exposure, read-out: IC50 A549 (confluent) lung carcinoma; for IC50 higher in confluent A549 cells than in A549 cells in log phase growth: confluent versus log phase
[4] = tested on: A549 cells; test: Immunoblotting analysis of treated A549 cells; assay type: cell-based, human; conditions: for cleaved caspases 7 and 9: 50-500 nM for 72 h; for FADD and cleaved caspase 8 expression: increasing concentration; for overall expression level of RIP1 and RIP3: increasing dosages
Description: In order to determine the cell-killing mechanism of 1 and 2, cytotoxicity studies in the presence of apoptosis and necrosis inhibitors were conducted. […] The possibility that 1 and 2 induce necroptosis was then investigated. Necroptosis is a well-regulated mode of cell death that is different from unregulated necrosis and apoptosis. Unlike unregulated necrosis, which can be induced by H2O2 or heat, necroptosis generally involved the interaction of protein kinases, RIP1 and RIP3, to initiate cell disintegration. This process can be blocked by necrostatin-1, a potent RIP1 kinase inhibitor. To determine whether 1 and 2 induced necroptosis and/or uncontrolled necrosis, cytotoxicity studies were conducted in the presence of necrostatin-1 (60 μM) and IM-54 (10 μM), an inhibitor of H2O2-induced necrosis. […] Therefore, 1- and 2-induced cell death relies on RIP1-RIP3 complex formation and not on the expression levels of the individual protein kinases. RIP1 can also form a cytosolic complex with Fas-associated death domain (FADD) and caspase 8, known as a ripoptosome, to initiate apoptosis (through caspase 8 cleavage).
(PARP-1). PARP-1 is a nuclear enzyme that is involved in DNA repair and transcriptional regulation. DNA damage can trigger PARP-1 activity, resulting in ATP and NAD depletion and bioenergetics- mediated cell death. To determine whether PARP-1 activity is a factor in 1- and 2-mediated cell death, cytotoxicity assays were conducted with wild-type mouse embryonic fibroblast cells (MEFs PARP-1+/+) and the corresponding PARP-1-null cells (MEFs PARP-1−/−). […] Recently, p53 has also been reported to play a role in necroptosis. p53 induces cathepsin Q, a lysosomal protease that cooperates with ROS to execute necrosis. To investigate whether p53 might play a role in 1- and 2-mediated necroptosis, cytotoxicity studies were conducted with HCT116 p53^+/+ nd HCT116 p53^−/− cells.
Immunoblotting Analysis. A549 cells (1.5×10^6 cells/well) grown in six-well plates were incubated with 1 and 2 (concentrations, sub-μM) for 72 h at 37° C. Cells were washed with PBS, scraped into SDS-PAGE loading buffer (64 mM Tris-HCl (pH 6.8)/9.6% glycerol/2% SDS/5% /1-mercaptoethanol/0.01% Bromophenol Blue), and incubated at 95° C. for 10 min. Whole cell lysates were resolved by 4-20% sodium dodecyl sulfate polyacylamide gel electrophoresis (SDS-PAGE; 200 V for 25 min), followed by electro-transfer to polyvinylidene difluoride membrane (350 mA for 1 h). Membranes were blocked in 5% (w/v) non-fat milk in PBST (PBS/0.1% Tween 20) and incubated with the appropriate primary antibodies (Cell Signalling Technology and Santa Cruz). After incubation with horseradish peroxidase-conjugated secondary antibodies (Cell Signalling Technology), immuno complexes were detected with the ECL detection reagent (BioRad) and analyzed using an Alpha Innotech Chemilmager 5500 instrument fitted with a chemiluminescence filter.

[5] = tested on: A549 cells; test: Hoechst 33258/propidium iodide double staining, fluorescence microscopy; assay type: cell-based, human; conditions: for nuclear staining, Hoechst 33258 and PI uptake: 20 μM for 12 h; for PI staining on co-incubation with necrostatin-1: necrostatin-1 60 μM for 12 h
Description: Intracellular ROS production and mitochondrial membrane depletion contribute to necroptosis. Cells undergoing necroptosis display necrosis-like morphological features such as loss of cell membrane integrity, increase in organelle and cell volume (oncosis), and intact nuclear membrane. To further test whether 1- and 2-treatment can trigger necroptosis, Hoechst 33258/propidium iodide (PI) double staining was carried out to determine nuclear membrane morphology and integrity. Hoechst 33258 is a DNA minor groove binder that is routinely used to visualize the nucleus without the need for cell permeabilization. When used without cell permeabilization agents, PI stains the nuclei of necrotic cells. Early-stage apoptotic and normal cells maintain cell membrane integrity and thus are not stained by PI. A549 cells were treated with 1 and 2 (20 μM for 12 h), incubated with Hoechst 33258 and PI, and imaged using a fluorescence microscope.
Fluorescence Microscopy. A549 cells (1.5×10^6 cells/well) were incubated with and without 1 and 2 (20 μM) for 12 h. The media were then removed, and the cells were washed with additional media (2 mL×2). After incubation of the cells with more media containing Hoechst 33258 (7.5 μM) and PI (5 μM), the nuclear regions were imaged using a fluorescence microscope. Fluorescence imaging experiments were performed using a Zeiss Axiovert 200M inverted epifluorscence microscope with a Hamamatsu EM-CCD digital camera C9100 and a MS200 XY Piezo Z stage (Applied Scientific Instruments, Inc.). An X-Cite 120 metal halide lamp (EXFO) was used as the light source. Zeiss standard filter set 49 was employed for imaging the nuclear region. The microscope was operated with Volocity software (version 6.01, Improvision). The exposure time for acquisition of fluorescence images was kept constant for each series of images at each channel.

[6] = Stability in whole human blood (octanol extraction, GFAAS); assay type: in vitro ADME; conditions: 500 μM, fresh human blood, 37° C.
Description: The stability of biologically active compounds in human blood is vitally important for their potential application in clinical settings. The stability of 1 in whole human blood using a recently developed protocol was investigated. The method exploits the ability of octanol to extract hydrophobic metal complexes such as 1. The rhenium complex 1 (500 μM) was incubated with fresh human blood at 37° C., and aliquots were extracted into octanol at various time points. The amount of 1 in the octanol extracts (corresponding to unreacted 1) was measured by graphite furnace atomic absorption spectroscopy (GFAAS).

| SMILES | IC50 [1] [nM] | IC50 [2] [nM] | IC50 lower in HT-29 cells than IC50 of cisplatin [2] [fold] | IC50 [3] [nM] | IC50 higher in confluent A549 cells than in A549 cells in log phase growth [3] [fold] | markers of DNA damage, phosphorylated H2AX (γH2AX) and CHK2 [4] | cleaved caspases 7 and 9 [4] | FADD and cleaved caspase 8 expression [4] | overall expression level of RIP1 and RIP3 [4] | nuclear staining, Hoechst 33258 and PI uptake [5] | PI staining on co-incubation with necrostatin-1 [5] | half-life in human blood [6] [min] |
| --- | --- | --- | --- | --- | --- | --- | --- | --- | --- | --- | --- | --- |
| C[O][Re](=[O])([Cl])[Cl].c1ccc(-c2ccnc3c2ccc2c(-c4ccccc4)ccnc23)cc1 [Compound 1, [ReO(OMe)(4,7-diphenyl-1,10-phenanthroline)-Cl2]] | 230 ± 28 | 85 ± 11 | 300 | 8610 ± 749 | 40 | did not up-regulate | not detected | remained unaltered | remained unchanged | pink nuclei | unstained by PI | 29.1 |
| C[O][Re-2]1(=[O])([Cl])([Cl])[n+]2cc(C)c(C)c3ccc4c(C)c(C)c[n+]1c4c32 [Compound 2, [ReO(OMe)(3,4,7,8-tetramethyl-1,10-phenanthroline)Cl2]] | 255 ± 35 | 95 ± 20 | 300 | 5240 ± 1990 | 40 | did not up-regulate | not detected | remained unaltered | remained unchanged | pink nuclei | unstained by PI | – |
